From PubChem BioAssay (NCI) come the findings set out here.

What all share (test): NCI-60 cell line screen, 48 h
The test system of assay [1] is NCI-H23 lung.
Assay [2] deals with HCT-116 colon.
In assay [3] the test system is MALME-3M melanoma.
Assay [4] deals with HCC-2998 colon.
Assay [5] deals with NCI-H460 lung.
For assay [6], the system named is SR leukemia.
Assay [7] has as its system SK-MEL-28 melanoma.
Assay [8] concerns DU-145 prostate.
Assay [9] deals with OVCAR-8 ovarian.
For assay [10], the system named is UO-31 renal.

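Assay format: 96-well plates, 48-hour exposure. TGI denotes the concentration required for complete inhibition of growth.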

As for `CC(=O)c1cc2ccccc2n(O)c1=N`, the TGI in assay [1], in assay [2], in assay [3], in assay [4], in assay [5] and in [6] was > 100 µM in each case. Moreover, the TGI in assay [7], in [8] and in assay [9] was > 100 µM in each case.

Consider `CC1(COS(=O)(=O)OCC2(C)COS(=O)(=O)OC2)COS(=O)(=O)OC1`, for which the TGI in [1] was > 89.4 µM; in assay [2], > 100 µM; in assay [3], > 100 µM; in assay [4], > 100 µM; in assay [5], > 100 µM; in assay [6], > 56.9 µM. Also, the TGI in assay [7] is > 100 µM; in [10], > 100 µM; in [8] it was > 88.6 µM; in assay [9], > 100 µM.

As for `COc1ccc(/C=C2\N=C(c3ccccc3)N(C3Nc4cc5c(cc4S3)NC(N3C(=O)/C(=C/c4ccc(OC)cc4)N=C3c3ccccc3)S5)C2=O)cc1` (centres undefined), the TGI was > 100 µM in [1]; > 100 µM in assay [2]; 97.7 µM in [4]; > 100 µM in assay [5]; > 100 µM in assay [6]; > 100 µM in assay [7]. In addition, the TGI in assay [10], in assay [8] and in [9] was > 100 µM throughout.

Take `O=C1/C(=C2\Sc3c(ccc(Cl)c3Cl)C2=O)Sc2c1ccc(Cl)c2Cl`: the TGI in [1], in assay [2], in assay [3], in assay [4], in assay [5] and in assay [6] was > 100 µM each time. Further, the TGI in assay [7], in [10], in assay [8] and in assay [9] was > 100 µM in each case.

In the case of `CC(C)N(C)C(=O)C12C3C4C1C1C2C3C41C#N` (centres undefined), the TGI in assay [1], in assay [2], in assay [4], in assay [5], in assay [6] and in assay [7] was > 100 µM each time. In addition, the TGI in assay [10], in assay [8] and in assay [9] was > 100 µM throughout.

With `Cc1c(-c2ccccc2)c(C#N)c2nnc(C(N)=O)c(N)n12`, the TGI in [1], in assay [2], in assay [3], in [4], in assay [5] and in assay [6] was > 100 µM each time. Besides, the TGI in assay [7], in assay [10], in assay [8] and in assay [9] was > 100 µM each time.

Consider `O=C(CNc1ccc(Cl)cc1Cl)NC1C=Cc2ccc(S(=O)(=O)Nc3ccc(Cl)cc3Cl)cc2C1=O` (centres undefined), for which the TGI in assay [1], in assay [2], in assay [3], in assay [4], in assay [5] and in assay [6] was > 100 µM in each case. In addition, the TGI in [7], in assay [10], in [8] and in assay [9] was > 100 µM throughout.

As for `COc1cccc(-c2cc(=O)c3ccc(C)nc3[nH]2)c1`, the TGI in assay [1] is > 100 µM; in [2], > 38.1 µM; in assay [3], > 100 µM; in [4], 2.12 µM; in assay [5] it was > 100 µM; in assay [6], 0.0503 µM. Besides, the TGI in [7] was > 100 µM; in assay [10] it was > 100 µM; in assay [8], 3.7 µM; in assay [9] it was > 100 µM.

Consider `c1ccc2c(Cc3nnc4sc(SSc5nn6c(Cc7c[nH]c8ccccc78)nnc6s5)nn34)c[nH]c2c1`, for which the TGI in assay [1] is 34.7 µM; in assay [2], 29.4 µM; in assay [3], 78.7 µM; in [4], 30.4 µM; in assay [5], 89.3 µM; in [6], 41.7 µM. In addition, the TGI in assay [7] was > 100 µM; in assay [10] it was 46.7 µM; in [8] it was 67.4 µM; in assay [9], 73.1 µM.

With `CCCCOCn1c(=O)[nH]c(=O)c2cc(Br)ccc21`, the TGI in assay [2] is > 100 µM; in [4] it was > 100 µM; in [6] it was > 100 µM; in [7], > 100 µM; in [10] it was 52.6 µM; in assay [8] it was > 100 µM. The TGI in assay [9] turned out to be 88.6 µM.

Consider `NNC(=S)N1CCN(C(=S)NN)CC1`, for which the TGI in [1], in [2], in assay [3], in assay [4], in [5] and in assay [6] was > 100 µM in each case. Further, the TGI in assay [7], in [10] and in assay [8] was > 100 µM in each case.

In the case of `O=S1(=O)c2ccccc2NC(=S)CC1c1ccccc1` (centres undefined), the TGI in assay [1], in assay [2], in assay [3], in assay [5], in assay [6] and in assay [7] was > 100 µM throughout. For the same compound, the TGI in assay [10], in assay [8] and in assay [9] was > 100 µM throughout.

For `CSC1=NS(=O)(=O)c2cc(C(=O)NN(C)C(=O)c3cc4c(cc3Cl)SC(SC)=NS4(=O)=O)c(Cl)cc2S1`, the TGI in [1], in assay [2], in [3], in [4], in assay [5] and in assay [6] was > 10 µM each time. Also, the TGI in [7], in assay [10], in assay [8] and in [9] was > 10 µM in each case.

On to `NNc1nncn1N`, for which the TGI in [1] is > 79.5 µM; in assay [2] it was > 100 µM; in assay [3], > 85.4 µM; in [5], > 100 µM; in [6], > 100 µM; in [7] it was > 100 µM. In addition, the TGI in assay [10] is > 100 µM; in assay [8] it was > 67.3 µM; in assay [9], > 100 µM.

On to `CCc1c(C)c(C#N)c(=S)n(C2OC(CO)C(O)C(O)C2O)c1C` (centres undefined), for which the TGI in assay [1], in assay [2], in [3], in [4], in assay [5] and in assay [6] was > 100 µM each time. Besides, the TGI in assay [7], in assay [10], in assay [8] and in assay [9] was > 100 µM each time.

For `CC(C)CNC(=O)Cn1c(-c2ccccc2)cc2ccccc21`, the TGI in [1], in [2], in [3], in assay [4], in assay [5] and in assay [6] was > 100 µM throughout. Moreover, the TGI in assay [7], in [10], in [8] and in assay [9] was > 100 µM in each case.

Turning to `CCOC(=O)C(CS)NC(=O)CCCCCCCC(=O)NC(CS)C(=O)OCC` (centres undefined), the TGI in [1], in assay [2], in [3], in [4], in assay [5] and in [6] was > 100 µM throughout. In addition, the TGI in [7], in [10], in assay [8] and in [9] was > 100 µM each time.

`COc1cc(C2SCC(=O)N2c2ccc(Oc3ccc(Cl)cc3)c(Cl)c2)cc(OC)c1OC` (centres undefined): the TGI in [1] was > 100 µM; in [2], 35.5 µM; in assay [3], 37.5 µM; in assay [4], > 100 µM; in [5], > 100 µM; in assay [6], > 100 µM. Further, the TGI in assay [7] is 35 µM; in assay [10] it was 91.3 µM; in assay [8], 27.3 µM; in assay [9] it was 30.7 µM.

For `CC(=O)c1cc2c(s1)C(=O)c1ccccc1C2=O`, the TGI in assay [2] was > 31.2 µM; in [3], 2.65 µM; in assay [4], 18.3 µM; in [5], > 33.4 µM; in assay [6], > 100 µM; in [7], 36.2 µM. The TGI came out at 9.1 µM in assay [10], 12 µM in assay [8] and 5.98 µM in [9].

As to `COc1c(C)c(OC)c2c(c1O)[C@@H]1[C@@H]3Cc4c(OC)c(C)c(OC)c(O)c4[C@H](CNC(=O)c4cnc5ccccc5n4)N3[C@@H](C#N)[C@H](C2)N1C`, the TGI in assay [1] is 0.0121 µM; in [2] it was > 0.1 µM; in assay [3], 0.00458 µM; in assay [5] it was > 0.1 µM; in assay [6], 0.0014 µM; in assay [7] it was 0.00733 µM. Moreover, the TGI in [10] is > 0.0423 µM; in assay [8] it was > 0.0206 µM; in assay [9], 0.0212 µM.

On to `C/C(O)=C/c1nc2ccc([N+](=O)[O-])cc2nc1/C=C(/C)O`, for which the TGI was > 100 µM in assay [1]; > 100 µM in assay [2]; 94.3 µM in assay [3]; 51.5 µM in [5]; 47 µM in [6]; > 100 µM in assay [7]. The TGI in assay [10], in assay [8] and in assay [9] was > 100 µM throughout.

In the case of `c1ccc2c(c1)nc1n2CCSC1`, the TGI in assay [1], in assay [2], in assay [4], in assay [5], in [6] and in assay [7] was > 100 µM each time. The TGI in assay [10] and in assay [8] was > 100 µM in each case.

For the compound `O=c1[nH]c(Nc2cccc(Cl)c2)nc2nc[nH]c12`, the TGI in assay [1], in assay [2], in [3], in assay [4], in assay [5] and in [6] was > 100 µM throughout. The TGI in [10], in assay [8] and in assay [9] was > 100 µM in each case.

In the case of `CC(=O)N1CCN(C23OC4(N5CCN(C(C)=O)CC5)C5C6CC(C7C6C4C72)C53)CC1` (centres undefined), the TGI in assay [1], in assay [2], in assay [3], in [4], in assay [5] and in [6] was > 100 µM in each case. Also, the TGI in assay [10], in [8] and in assay [9] was > 100 µM in each case.

`CN(Cc1cnc2nc(N)nc(N)c2n1)c1ccc(C(=O)NC(CCC(=O)NC(P(=O)(O)O)P(=O)(O)O)C(=O)O)cc1` (centres undefined): the TGI in [1], in assay [2], in [3], in assay [5], in [6] and in assay [7] was > 100 µM each time. For the same compound, the TGI in assay [10], in [8] and in [9] was > 100 µM in each case.

Regarding `O=c1[nH]nc(Cc2ccccc2)n1-n1cnnc1`, the TGI in assay [1], in assay [2], in assay [4], in assay [6], in assay [7] and in assay [10] was > 100 µM throughout. Besides, the TGI in [8] and in [9] was > 100 µM in each case.

With `COc1c2cc(C(C)(C)C)cc1Cc1cccc(c1O)Cc1cc(C(C)(C)C)cc(c1OC)Cc1cccc(c1O)Cc1cc(C(C)(C)C)cc(c1OC)Cc1cccc(c1O)C2`, the TGI in assay [2], in assay [3], in assay [4], in assay [5], in [6] and in [7] was > 100 µM throughout. For the same compound, the TGI in [10], in assay [8] and in [9] was > 100 µM in each case.

With `Cc1ccc(C(=O)/C(C#N)=C/Nc2c(C)n(C)n(-c3ccccc3)c2=O)cc1`, the TGI in assay [1], in assay [2], in [3], in assay [4], in assay [5] and in assay [6] was > 100 µM each time. Further, the TGI in [7], in assay [10] and in assay [8] was > 100 µM throughout.
